Several values for one entry are separate records, joined by “and”; a condition that tells them apart may be missing. Equal entries are not always repeated. Inconclusive results and toxic doses are left out. How the source made its calls: active means survival T/C of 150% or more; inactive means T/C below 125% in these data.
System: CD2F1 mice, L1210 leukemia ip, survival T/C
Assay: NCI In Vivo Anticancer Drug Screen. Data for tumor model L1210 Leukemia (intraperitoneal) in CD2F1 (CDF1) mice
Conditions: higher = longer survival
Method in brief: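 Each value reflects a quotient of treated over vehicle control outcomes in mice with a transplanted tumor.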

[1] = endpoint: mean survival time, dose: 100.0 mg/kg/injection, schedule: Q04DX003 (ip), vehicle: saline
[2] = endpoint: mean survival time, dose: 200.0 mg/kg/injection, schedule: Q04DX003 (ip), vehicle: saline
[3] = endpoint: mean survival time, dose: 400.0 mg/kg/injection, schedule: Q04DX003 (ip), vehicle: saline
[4] = endpoint: mean survival time, dose: 12.5 mg/kg/injection, schedule: Q01DX009 (ip), vehicle: saline with Tween-80
[5] = endpoint: mean survival time, dose: 25.0 mg/kg/injection, schedule: Q01DX009 (ip), vehicle: saline with Tween-80
[6] = endpoint: mean survival time, dose: 50.0 mg/kg/injection, schedule: Q01DX009 (ip), vehicle: saline with Tween-80
[7] = endpoint: mean survival time, dose: 100.0 mg/kg/injection, schedule: Q01DX001 (ip), vehicle: saline with Tween-80
[8] = endpoint: mean survival time, dose: 100.0 mg/kg/injection, schedule: Q01DX009 (ip), vehicle: saline with Tween-80
[9] = endpoint: mean survival time, dose: 200.0 mg/kg/injection, schedule: Q01DX001 (ip), vehicle: saline with Tween-80
[10] = endpoint: mean survival time, dose: 200.0 mg/kg/injection, schedule: Q01DX009 (ip), vehicle: saline with Tween-80
[11] = endpoint: mean survival time, dose: 400.0 mg/kg/injection, schedule: Q01DX009 (ip), vehicle: saline with Tween-80
[12] = endpoint: mean survival time, dose: 50.0 mg/kg/injection, schedule: Q01DX009 (ip), vehicle: saline
[13] = endpoint: mean survival time, dose: 100.0 mg/kg/injection, schedule: Q01DX001 (ip), vehicle: saline
[14] = endpoint: mean survival time, dose: 100.0 mg/kg/injection, schedule: Q01DX009 (ip), vehicle: saline
[15] = endpoint: mean survival time, dose: 200.0 mg/kg/injection, schedule: Q01DX001 (ip), vehicle: saline
[16] = endpoint: mean survival time, dose: 200.0 mg/kg/injection, schedule: Q01DX009 (ip), vehicle: saline
[17] = endpoint: mean survival time, dose: 400.0 mg/kg/injection, schedule: Q01DX001 (ip), vehicle: saline
[18] = endpoint: mean survival time, dose: 12.5 mg/kg/injection, schedule: Q01DX005 (ip), vehicle: distilled water + Tween-80
[19] = endpoint: mean survival time, dose: 25.0 mg/kg/injection, schedule: Q01DX005 (ip), vehicle: distilled water + Tween-80
[20] = endpoint: mean survival time, dose: 50.0 mg/kg/injection, schedule: Q01DX005 (ip), vehicle: distilled water + Tween-80
[21] = endpoint: mean survival time, dose: 100.0 mg/kg/injection, schedule: Q01DX005 (ip), vehicle: distilled water + Tween-80
[22] = endpoint: mean survival time, dose: 200.0 mg/kg/injection, schedule: Q01DX005 (ip), vehicle: distilled water + Tween-80

Measured: T/C

CN(C)CC(O)c1ccc(O)c(O)c1 (configuration not stated)
inactive: [1] 115 % of control | [2] 115 % of control | [3] 103 % of control

CCCCOC(=O)C=O
inactive: [4] 101 % of control | [5] 105 % of control | [6] 99 % of control

O=C1c2ccccc2C(=O)N1CO
inactive: [7] 108 % of control | [8] 101 % of control | [9] 106 % of control | [10] 97 % of control | endpoint: mean survival time, dose: 400.0 mg/kg/injection, schedule: Q01DX001 (ip), vehicle: saline with Tween-80 104 % of control | [11] 101 % of control

CC(C)(C)c1ccc(OS(=O)(=O)c2cccc([N+](=O)[O-])c2)cc1
inactive: [8] 86 % of control | [10] 102 % of control | [11] 94 % of control

Nc1nc(Cl)nc2c1ncn2C1CC(O)C(CO)O1 (configuration not stated)
inactive: endpoint: median survival time, dose: 1.56 mg/kg/injection, schedule: Q01DX009 (ip), vehicle: Klucel (hydroxypropylcellulose) (HPC) 124 % of control | endpoint: median survival time, dose: 7.5 mg/kg/injection, schedule: Q03HX009 (ip), vehicle: suspension in saline 107 % of control | endpoint: median survival time, dose: 15.0 mg/kg/injection, schedule: Q03HX009 (ip), vehicle: suspension in saline 100 % of control | endpoint: median survival time, dose: 30.0 mg/kg/injection, schedule: Q03HX009 (ip), vehicle: suspension in saline 109 % of control | endpoint: median survival time, dose: 60.0 mg/kg/injection, schedule: Q03HX009 (ip), vehicle: suspension in saline 109 % of control | endpoint: median survival time, dose: 120.0 mg/kg/injection, schedule: Q03HX009 (ip), vehicle: suspension in saline 113 % of control
active: endpoint: median survival time, dose: 7.5 mg/kg/injection, schedule: Q03HX009 (ip), vehicle: saline 172 % of control | endpoint: median survival time, dose: 10.0 mg/kg/injection, schedule: Q03HX024 (ip), vehicle: saline 735 % of control | endpoint: median survival time, dose: 12.5 mg/kg/injection, schedule: Q01DX009 (ip), vehicle: Klucel (hydroxypropylcellulose) (HPC) 180 % of control | endpoint: median survival time, dose: 15.0 mg/kg/injection, schedule: Q03HX009 (ip), vehicle: saline 168 % of control | endpoint: median survival time, dose: 15.0 mg/kg/injection, schedule: Q03HX024 (ip), vehicle: saline 345 % of control | endpoint: median survival time, dose: 20.0 mg/kg/injection, schedule: Q03HX024 (ip), vehicle: saline 735 % of control | endpoint: median survival time, dose: 25.0 mg/kg/injection, schedule: Q01DX009 (ip), vehicle: Klucel (hydroxypropylcellulose) (HPC) 192 % of control | endpoint: median survival time, dose: 30.0 mg/kg/injection, schedule: Q03HX009 (ip), vehicle: saline 208 % of control | endpoint: median survival time, dose: 60.0 mg/kg/injection, schedule: Q03HX009 (ip), vehicle: saline 204 % of control

c1ccc(Cc2ccccn2)cc1
inactive: endpoint: mean survival time, dose: 100.0 mg/kg/injection, schedule: Q04DX003 (ip), vehicle: water 93 % of control | endpoint: mean survival time, dose: 200.0 mg/kg/injection, schedule: Q04DX003 (ip), vehicle: water 101 % of control | endpoint: mean survival time, dose: 400.0 mg/kg/injection, schedule: Q04DX003 (ip), vehicle: water 104 % of control

C1CC(N2CC2)CCC1N1CC1 (configuration not stated)
active: endpoint: mean survival time, dose: 6.0 mg/kg/injection, schedule: Q04DX003 (ip), vehicle: saline 169 % of control
inactive: endpoint: mean survival time, dose: 9.0 mg/kg/injection, schedule: Q04DX003 (ip), vehicle: saline 124 % of control | endpoint: mean survival time, dose: 13.0 mg/kg/injection, schedule: Q04DX003 (ip), vehicle: saline 110 % of control | endpoint: mean survival time, dose: 20.0 mg/kg/injection, schedule: Q04DX003 (ip), vehicle: saline 86 % of control

O=C(O)C(O)C(O)C(O)C(O)CO.[NH-]C1CCCCC1[NH-].[Pt+2] (configuration not stated)
active: endpoint: mean survival time, dose: 6.25 mg/kg/injection, schedule: Q04DX003 (ip), vehicle: saline 150 % of control and 290 % of control | endpoint: mean survival time, dose: 12.5 mg/kg/injection, schedule: Q04DX003 (ip), vehicle: saline 230 % of control and 277 % of control | endpoint: mean survival time, dose: 25.0 mg/kg/injection, schedule: Q04DX003 (ip), vehicle: saline 244 % of control and 314 % of control

Oc1ccc(Cl)cc1Cn1ccnc1
inactive: endpoint: mean survival time, dose: 50.0 mg/kg/injection, schedule: Q01DX001 (ip), vehicle: saline 111 % of control | [12] 104 % of control | endpoint: mean survival time, dose: 50.0 mg/kg/injection, schedule: Q04DX003 (ip), vehicle: saline 106 % of control | [13] 100 % of control | [14] 95 % of control and 110 % of control | endpoint: mean survival time, dose: 100.0 mg/kg/injection, schedule: Q04DX002 (ip), vehicle: saline 115 % of control and 101 % of control | [1] 101 % of control | [15] 104 % of control | [16] 93 % of control and 109 % of control | endpoint: mean survival time, dose: 200.0 mg/kg/injection, schedule: Q04DX002 (ip), vehicle: saline 103 % of control and 112 % of control | [2] 113 % of control

Nc1ccnc(SCc2ccc3ccccc3c2)n1
inactive: endpoint: mean survival time, dose: 100.0 mg/kg/injection, schedule: Q04DX002 (ip), vehicle: saline with Tween-80 93 % of control | endpoint: mean survival time, dose: 200.0 mg/kg/injection, schedule: Q04DX002 (ip), vehicle: saline with Tween-80 101 % of control | endpoint: mean survival time, dose: 400.0 mg/kg/injection, schedule: Q04DX002 (ip), vehicle: saline with Tween-80 101 % of control

O=[N+]([O-])c1cccc(N=C(c2ccccc2)N(O)c2ccccc2)c1
inactive: [13] 100 % of control | [1] 102 % of control | [15] 100 % of control | [2] 97 % of control | [17] 100 % of control | [3] 103 % of control

COc1ccc(CSc2nn(C3OC(COC(=O)c4ccccc4)C(OC(=O)c4ccccc4)C3OC(=O)c3ccccc3)c(=O)[nH]c2=S)cc1 (configuration not stated)
inactive: [18] 104 % of control | [19] 101 % of control | [20] 93 % of control | [21] 93 % of control | [22] 90 % of control

N#CC[CH2][Sn]([Br])([Br])[CH2]CC#N
inactive: endpoint: mean survival time, dose: 0.78 mg/kg/injection, schedule: Q01DX009 (ip), vehicle: saline 97 % of control | endpoint: mean survival time, dose: 1.56 mg/kg/injection, schedule: Q01DX009 (ip), vehicle: saline 94 % of control | endpoint: mean survival time, dose: 3.12 mg/kg/injection, schedule: Q01DX009 (ip), vehicle: saline 92 % of control and 98 % of control | endpoint: mean survival time, dose: 6.25 mg/kg/injection, schedule: Q01DX009 (ip), vehicle: saline 105 % of control and 107 % of control | endpoint: mean survival time, dose: 12.5 mg/kg/injection, schedule: Q01DX009 (ip), vehicle: saline 94 % of control and 101 % of control and 107 % of control | endpoint: mean survival time, dose: 25.0 mg/kg/injection, schedule: Q01DX009 (ip), vehicle: saline 95 % of control and 97 % of control | [12] 89 % of control

CC(=O)/C=C/Sc1n[nH]c(=O)[nH]c1=O
inactive: [18] 106 % of control | [19] 101 % of control | [20] 107 % of control | [21] 98 % of control

C=C1C(=O)O[C@@H]2C[C@@]3(C)CCC[C@H](C)C3=C[C@H]12
inactive: [14] 98 % of control | [16] 101 % of control

CSc1nn(C2OC(COC(=O)c3ccccc3)C(OC(=O)c3ccccc3)C2OC(=O)c2ccccc2)c(=O)[nH]c1=O (configuration not stated)
inactive: [18] 98 % of control | [19] 93 % of control | [20] 97 % of control | [21] 93 % of control | [22] 95 % of control

CC1=CC(=O)C2(C)C(C)=C(C)C12C (configuration not stated)
inactive: [5] 104 % of control | [6] 100 % of control | [8] 102 % of control

Cc1ccc2c(c1)C(c1ccccc1)(c1ccccc1)OC2=O
inactive: endpoint: mean survival time, dose: 100.0 mg/kg/injection, schedule: Q04DX003 (ip), vehicle: saline with Tween-80 98 % of control | endpoint: mean survival time, dose: 200.0 mg/kg/injection, schedule: Q04DX003 (ip), vehicle: saline with Tween-80 91 % of control | endpoint: mean survival time, dose: 400.0 mg/kg/injection, schedule: Q04DX003 (ip), vehicle: saline with Tween-80 95 % of control

O=[N+]([O-])c1ccc(/C(CBr)=N/N2CCCCC2)cc1
inactive: [13] 94 % of control | [15] 93 % of control | [17] 92 % of control

N/C(=N\O)c1ccccc1
inactive: [6] 103 % of control | [8] 98 % of control | [10] 90 % of control

O=C1CCCCCCCC1O (configuration not stated)
inactive: [8] 95 % of control | [10] 94 % of control | [11] 105 % of control

C[Si](C)(C)O/C=C1\CCCCC1=O
inactive: endpoint: mean survival time, dose: 6.25 mg/kg/injection, schedule: Q01DX009 (ip), vehicle: saline with Tween-80 98 % of control and 100 % of control | [4] 96 % of control and 98 % of control | [5] 91 % of control and 100 % of control | [6] 93 % of control and 100 % of control | [8] 93 % of control and 102 % of control | [10] 105 % of control

Nc1nc2c(ncn2CCCc2ccccc2)c(=O)[nH]1
inactive: [7] 94 % of control | [9] 94 % of control

NN(C(=O)c1ccccc1)C1CCCCC1
inactive: [8] 97 % of control

From PubChem BioAssay AID256 (DTP/NCI, 2004)
